Reference: US4057545A, “Imidazole derivatives” (Nordmark-Werke GmbH Hamburg, priority 1975, dated 1977)

Legend:
LD50 (mice) = conditions: mouse, in vivo
Staphylococcus aureus = test: series dilution test in vitro, Staph. aur.; assay type: cell-based; parameters: key: .phi.: complete inhibition; (+): strong inhibition; +: moderate inhibition; ++: slight inhibition; +++: no inhibition; conditions: for inhibition of Staph. aur., 1st value: dilution 1: 10,000; for inhibition of Staph. aur., 2nd value: dilution 1: 100,000
Experimental: (§1) The new compounds and their salts are valuable agents for controlling fungi and yeasts and, in addition, are also active against several types of bacteria. To test the antimicrobial activity of the new compounds in vitro, they were tested in a series dilution test with dilutions of from 1:10,000 to 1:100,000 for their effectiveness against the germs Staphylococcus aureus, Trichophyton mentagrophytes and Candida albicans.

[1] = tested on: Trichophyton mentagrophytes; test: series dilution test in vitro, Trichoph.; assay type: cell-based; parameters: key: .phi.: complete inhibition; (+): strong inhibition; +: moderate inhibition; ++: slight inhibition; +++: no inhibition; conditions: for inhibition of Trichoph., 1st value: dilution 1: 10,000; for inhibition of Trichoph., 2nd value: dilution 1: 100,000
Experimental: as §1

Candida albicans [2] = test: series dilution test in vitro, Cand. alb.; assay type: cell-based; parameters: key: .phi.: complete inhibition; (+): strong inhibition; +: moderate inhibition; ++: slight inhibition; +++: no inhibition; conditions: for inhibition of Cand. alb., 1st value: dilution 1: 10,000; for inhibition of Cand. alb., 2nd value: dilution 1: 100,000
Experimental: as §1

Candida albicans [3] = test: oral effectiveness in Candida-infected mice (survival); assay type: in vivo; conditions: 100 mg/kg twice daily for 7 days
Description: Accordingly, the compounds according to the invention are particularly suitable for the oral treatment of generalized infections by fungi and yeasts in human and veterinary medicine. Since the hitherto available medicaments are not yet satisfactory (Lit.: Infection 2, (1974) 95-107), they represent a valuable addition to pharmacology. In addition, they may be used equally effectively for the local treatment of surface infections and for the treatment of infections of the mucosa excessible to local treatment. Typical diseases of thiskind, for the treatment of which the compounds of the present invention are particular useful, are for instance generalized candidoses, candidoses of the lungs, of the skin or of the genitals or generalized trichophytoses (tineas) or trichophytoses of the skin, of the nails or of the hair.
In order to determine the oral effectiveness of the compounds, groups of 10 mice each weighing approximately 20 g were each treated i.m for 2 days with 50 mg/kg of hydrocortisone to ensure effective development of the infection. The mice were then each infected i.v. with 500,000 Candida albicans germs and thereafter were treated twice daily for 7 days with 100 mg/kg of the substance to be tested. In addition to an infected, but untreated control group, one group was treated with the reference substance Miconazole for comparison.

[4] = mice; literature value; cited from earlier work

Row | Compound | LD50 (LD50 (mice)) [mg/kg] | inhibition of Staph. aur., 1st value (Staphylococcus aureus) | inhibition of Staph. aur., 2nd value (Staphylococcus aureus) | inhibition of Trichoph., 1st value [1] | inhibition of Trichoph., 2nd value [1] | inhibition of Cand. alb., 1st value (Candida albicans [2]) | inhibition of Cand. alb., 2nd value (Candida albicans [2]) | animals still alive on the last day of the treatment (Candida albicans [3]) [%] | LD50 (Lit.) [4] [mg/kg]
1 | Clc1ccc(C(=Cc2ccc(Cl)cc2Cl)Cn2ccnc2)cc1 [A, 1-(2,4-dichlorophenyl)-2-(4-chlorophenyl)-3-(imidazolyl-1)-propene-1-nitrate] | ~1000 |  |  |  |  |  |  |  | 
2 | Clc1ccc(C(=Cc2ccc(Br)cc2)Cn2ccnc2)cc1 [n=0, R1=4-Cl, R2=H, R3=4-Br, R4=H] |  | .phi. | .phi. | .phi. | .phi. | .phi. | ++ |  | 
3 | Clc1ccc(C=C2c3ccccc3CCC2n2ccnc2)cc1 (stereo not drawn) [n=2, R1=H, R2=H, R3=H, R4=4-Cl] |  | .phi. | .phi. | .phi. | .phi. | .phi. | ++ |  | 
4 | Clc1ccc(C=C(Cn2ccnc2)c2ccc(Cl)cc2)cc1 [B, 1-(4-chlorophenyl)-2-(4-chlorophenyl)-3-(imidazolyl-1)-propene-1-nitrate] | ~1000 |  |  |  |  |  |  |  | 
5 | Brc1ccc(C=C(Cn2ccnc2)c2ccc(Br)cc2)cc1 [n=0, R1=4-Br, R2=H, R3=4-Br, R4=H] |  | .phi. | .phi. | .phi. | .phi. | .phi. | ++ |  | 
6 | Clc1ccc(C(=Cc2ccccc2)Cn2ccnc2)cc1 [C, 1-phenyl-2-(4-chlorophenyl)-3-(imidazolyl-1)-propene-1-nitrate] | ~1000 |  |  |  |  |  |  |  | 
7 | Clc1ccc(C=C(Cn2ccnc2)c2ccc(Cl)cc2)cc1 [n=0, R1=4-Cl, R2=H, R3=4-Cl, R4=H] |  | .phi. | .phi. | .phi. | .phi. | .phi. | (+ ) |  | 
8 | Clc1ccc(C=C(Cn2ccnc2)c2ccc(Cl)cc2Cl)cc1 [F, 1-(4-chlorophenyl)-2-(2,4-dichlorophenyl)-3-(imidazolyl-1)-propene-1-nitrate] | ~2000 |  |  |  |  |  |  |  | 
9 | Clc1ccc(C(=Cc2ccc(Cl)c(Cl)c2)Cn2ccnc2)c(Cl)c1 [n=0, R1=4-Cl, R2=2-Cl, R3=4-Cl, R4=3-Cl] |  | .phi. | .phi. | .phi. | .phi. | .phi. | ++ |  | 
10 | COc1ccc(C(=Cc2ccccc2)Cn2ccnc2)cc1 [n=0, R1=H, R2=4-OCH3, R3=H, R4=H] |  | .phi. | .phi. | .phi. | .phi. | .phi. | +++ |  | 
11 | Clc1ccc(COC(Cn2ccnc2)c2ccc(Cl)cc2Cl)c(Cl)c1 (stereo not drawn) [Miconazole, 1-[2,4-dichloro-β-(2,4,-dichlorobenzyloxy)-phenethyl]-imidazole nitrate] |  |  |  |  |  |  |  | 20 | 578
12 | Clc1ccc(C=C2c3cc(Cl)ccc3CC2n2ccnc2)c(Cl)c1 (stereo not drawn) [n=1, R1=6-Cl, R2=H, R3=4-Cl, R4=2-Cl] |  | .phi. | .phi. | .phi. | .phi. | .phi. | +++ |  | 
13 | Clc1ccc(C(=Cc2ccc(Br)cc2)Cn2ccnc2)c(Cl)c1 [G, 1-(4-bromophenyl)-2-(2,4-dichlorophenyl)-3-(imidazolyl-1)-propene-1-nitrate] | ~1000 |  |  |  |  |  |  |  | 
14 | C(=C1c2ccccc2CCC1n1ccnc1)c1ccccc1 (stereo not drawn) [n=2, R1=H, R2=H, R3=H, R4=H] |  | .phi. | .phi. | .phi. | .phi. | .phi. | +++ |  | 
15 | Clc1ccc(C=C2c3ccccc3CC2n2ccnc2)cc1 (stereo not drawn) [n=1, R1=H, R2=H, R3=H, R4=4-Cl] |  | .phi. | .phi. | .phi. | .phi. | .phi. | ++ |  | 
16 | Clc1ccc(C=C(Cn2ccnc2)c2ccccc2)c(Cl)c1 [D, 1-(2,4-dichlorophenyl)-2-phenyl-3-(imidazolyl-1)-propene-1-nitrate] | ~1000 |  |  |  |  |  |  |  | 
17 | Clc1ccc(C=C2c3ccccc3CC2n2ccnc2)cc1Cl (stereo not drawn) [n=1, R1=H, R2=H, R3=3-Cl, R4=4-Cl] |  | .phi. | .phi. | .phi. | .phi. | .phi. | ++ |  | 
18 | Clc1ccc(C=C(Cn2ccnc2)c2ccc(Cl)cc2Cl)c(Cl)c1 [E, 1,2-bis-(2,4-dichlorophenyl)-3-(imidazolyl-1)-propene-1-nitrate] | ~2000 |  |  |  |  |  |  |  | 
19 | Cc1ccc(C(=Cc2ccc(Cl)cc2Cl)Cn2ccnc2)cc1 [n=0, R1=4-CH3, R2=H, R3=2-Cl, R4=4-Cl] |  | .phi. | .phi. | .phi. | .phi. | .phi. | (+) |  | 
20 | Clc1ccc(C=C2c3cc(Cl)ccc3CC2n2ccnc2)cc1 (stereo not drawn) [n=1, R1=6-Cl, R2=H, R3=4-Cl, R4=H] |  | .phi. | .phi. | .phi. | .phi. | .phi. | ++ |  | 
21 | Clc1ccc(C(=Cc2ccc(Br)cc2)Cn2ccnc2)c(Cl)c1 [n=0, R1=4-Cl, R2=2-Cl, R3=4-Br, R4=H] |  | .phi. | .phi. | .phi. | .phi. | .phi. | ++ |  | 
